Laboratory results: US7615527B2, “Peptides which modulate blood coagulation and methods of use thereof” (Oregon Health & Science University, priority 2001, dated 2009)
Square brackets hold non-standard residues; d marks the D form. Ends that are not written are not given here. Peptide text beside a SMILES is read from it. pY = N[C@@H](Cc1ccc(OP(=O)(O)O)cc1)C(=O)O

Columns and labels:
α-thrombin [1] = target: T1, α-thrombin (Homo sapiens, UniProt P00734); test: Competitive binding assay: α-thrombin binding to fluoresceinated γ′ 408-427 peptide; parameters: incubating 2 nM fluoresceinated peptide with 2 μM α-thrombin; thrombin: gift of Dr. John Fenton, II and Dr. Walter Kisiel; tracer peptide: Research Genetics; conditions: 2 nM fluoresceinated peptide with 2 μM α-thrombin
From the text: Proteins, Peptides, and DNA Aptamers. Human α-thrombin was generously provided by Dr. John Fenton, II (New York State Department of Health, Albany, N.Y.) and Dr. Walter Kisiel (University of New Mexico, Albuquerque, N. Mex.). Human γ-thrombin was obtained from Haematologic Technologies, Inc. (Essex Junction, Vt.). Tyrosine-phosphorylated derivatives of peptides corresponding to the γ′ chain carboxyl terminus, […] (SEQ ID NO: 11), were obtained from Research Genetics, Inc. (Huntsville, Ala.) and GeneMed Synthesis, Inc. (South San Francisco, Calif.). The peptides were purified to >95% purity by HPLC, and their molecular weights were verified by mass spectrometry. Tyrosine-sulfated, amino-terminal acetylated hirudin peptide 53-65 was obtained from Bachem, Inc. (Torrance, Calif.) and tyrosine-sulfated hirudin peptide 54-65 was obtained from Sigma (St. Louis, Mo.). Single-stranded DNA aptamers 5′-GGT-TGG-TGT-GGT-TGG-3′ (SEQ ID NO: 5), referred to as HD1, and 5′-AGT-CCG-TGG-TAG-GGC-AGG-TTG-GGG-TGA-CT-3′ (SEQ ID NO: 6), referred to as HD22, were generously provided by Dr. Jeffrey I. Weitz (McMaster University, Hamilton, ONT, Canada). A monoclonal antibody directed against thrombin exosite II (34) was a gift from Dr. Douglas M. Tollefsen (Washington University, St. Louis, Mo.). Production of Recombinant Fibrinogens Recombinant fibrinogen molecules were expressed with tyrosine to phenylalanine mutations in the γ′ chain at positions γ′ 418 and/or γ′ 422. Plasmid pAG-γ′ (10) was used as the template for site-directed mutagenesis (35) using the primer GAA-ACA-GAA-TTT-GAC-TCA-CTT (SEQ ID NO: 7) for Y418F, GAC-TCA-CTT-TTC-CCT-GAG-GAT (SEQ ID NO: 8) for Y422F, and GAA-ACA-GAA-TTT-GAC-TCA-CTT-TTC-CCT-GAG-GAT (SEQ ID NO: 9) for Y418F/Y422F. The mutated pAG-γ′ plasmids were co-transfected with pBD-1 into a baby hamster kidney cell line as described previously (10). Recombinant fibrinogens were labeled with 1 mCi/ml ^35SO4 in serum-free medium and immunoprecipitated from the medium using a rabbit polyclonal anti-fibrinogen antiserum (Accurate Chemical and Scientific Corp., Westbury, N.Y.) as described previously (10). The amount of fibrinogen secreted during the labeling was determined using an ELISA described previously (10). Identical amounts of radiolabeled fibrinogens (300 ng) were resolved by SDS-polyacrylamide gel electrophoresis on 10% gels under reducing conditions (36) and exposed to X-ray film. Thrombin/γ′ Peptide Binding Assay. To quantitate the binding of thrombin to the γ′ chain carboxyl terminus, 50 nM […]-Y (PO3)-DSL-Y (PO3)—PEDDL (SEQ ID NO: 10) peptide (Research Genetics), corresponding to the carboxyl terminal twenty amino acids of the γ′ chain, was labeled for 1 hour at 37° C. with a 5-fold molar excess of fluorescein succinimidyl ester (PanVera) in 100 mM potassium phosphate, pH 7.0 as per the manufacturer's protocol. Unreacted fluorescein succinimidyl ester was reacted with 100 mM Tris, pH 8.0 for 30 minutes and removed by desalting the fluoresceinated peptide on Sephadex G-15 in 137 mM NaCl/2.7 mM KCl/10 mM HEPES, pH 7.4. 2 nM fluoresceinated peptide was incubated with the indicated concentrations of thrombin for 30 seconds at 22° C. in 50 μg/ml BSA/137 mM NaCl/2.7 mM KCl/10 mM HEPES, pH 7.4. Fluorescence polarization was measured following excitation at 488 nm and emission at 535 nm. The data are fit to the equation: y=x/(b+x) where y is fit to x, using “x” as the concentration of thrombin and “b” as the Kd.
Competitive binding assays were performed by incubating 2 nM fluoresceinated peptide with 2 μM α-thrombin in the presence of the indicated concentrations of competing ligand. Fluorescence polarization was measured following excitation at 488 nm and emission at 535 nm.

[2] = test system: normal human reference plasma; test: Activated partial thromboplastin time (aPTT) assay in human plasma; type: biochemical; conditions: human plasma; 0-1 mM peptide
Procedure: Activated Partial Thromboplastin Time (aPTT) Assay. This anti-coagulation assay was chosen for testing the γ′ peptides due to its sensitivity to heparin-like compounds, its ease of use, and the ability to automate the procedure. An MLA 1600 instrument (Organon Teknika) was used to quantitate the effect of the γ′ peptides on the aPTT, using the manufacturer's protocol. Briefly, 0-1 mM γ′ peptides or 0-10 units/ml unfractionated heparin was added to 50 μl of normal reference plasma (Ortho) and manually loaded into the MLA 1600. The MLA 1600 added SynthASil aPTT reagent (Ortho) to initiate clotting, and clot formation was monitored spectrophotometrically for 106 seconds. […] Prothrombin Time/International Normalized Ratio Assay. This clotting assay is less sensitive to heparin than the aPTT, and may be used to determine if a γ′ peptide is capable of prolonging the prothrombin time (PT) to the same extent as the 3 aPTT. One-stage PT assays may be performed using an MLA 1600 instrument according to the manufacturer's protocol. Briefly, 0-1 mM γ′ peptide or scrambled peptide or 0-10 units/ml unfractionated heparin may be added to 50 μl of normal reference plasma (Ortho) and manually loaded into the MLA 1600. The MLA 1600 may be used to add recombinant thromboplastin (Recombiplastin, Ortho) to initiate clotting, and clot formation monitored spectrophotometrically for 106 seconds. If a clot is not generated within 106 seconds, the MLA will automatically extend the observation time to 212 seconds.
An aPTT assay was performed using human plasma to determine the effect of γ′ peptide on the clotting time in this system. […] The MLA 1600 added SynthASil aPTT reagent (Ortho) to initiate clotting and clot formation was monitored spectrophotometrically for 106 seconds. […]
An aPTT assay was performed using human plasma to determine the effect of γ′ deletion peptides on the clotting time in this system. […] The MLA 1600 added SynthASil aPTT reagent (Ortho) to initiate clotting and clot formation was monitored spectrophotometrically for 106 seconds. […]

α-thrombin [3] = target: T1, α-thrombin; test: Thrombin/γ′ peptide binding assay (fluorescence polarization); parameters: Human α-thrombin; gift: Dr. John Fenton, II (New York State Department of Health) and Dr. Walter Kisiel (University of New Mexico); conditions: 2 nM fluoresceinated peptide, 22° C., pH 7.4, read-out: Kd, binding of α-thrombin to fluoresceinated γ′ 408-427 peptide
From the text: Proteins, Peptides, and DNA Aptamers. Human α-thrombin was generously provided by Dr. John Fenton, II (New York State Department of Health, Albany, N.Y.) and Dr. Walter Kisiel (University of New Mexico, Albuquerque, N. Mex.). Human γ-thrombin was obtained from Haematologic Technologies, Inc. (Essex Junction, Vt.). Tyrosine-phosphorylated derivatives of peptides corresponding to the γ′ chain carboxyl terminus, […] (SEQ ID NO: 11), were obtained from Research Genetics, Inc. (Huntsville, Ala.) and GeneMed Synthesis, Inc. (South San Francisco, Calif.). The peptides were purified to >95% purity by HPLC, and their molecular weights were verified by mass spectrometry. […] The amount of fibrinogen secreted during the labeling was determined using an ELISA described previously (10). […] To quantitate the binding of thrombin to the γ′ chain carboxyl terminus, 50 nM […]-Y (PO3)-DSL-Y (PO3)—PEDDL (SEQ ID NO: 10) peptide (Research Genetics), corresponding to the carboxyl terminal twenty amino acids of the γ′ chain, was labeled for 1 hour at 37° C. with a 5-fold molar excess of fluorescein succinimidyl ester (PanVera) in 100 mM potassium phosphate, pH 7.0 as per the manufacturer's protocol. […] Fluorescence polarization was measured following excitation at 488 nm and emission at 535 nm. […]

α-thrombin [4] = target: T1, α-thrombin; test: Thrombin inhibition assay (ATIII, with or without heparin, Chromozym TH); type: biochemical; parameters: incubating 2 nM fluoresceinated peptide with 2 μM α-thrombin; thrombin: gift of Dr. John Fenton, II and Dr. Walter Kisiel; tracer peptide: Research Genetics
Procedure: Thrombin Inhibition Assay. […] In some experiments, 0.33 μM heparin (Sigma) was included in the reaction. The inhibition reaction was terminated by the addition of 0.3 ml of a vast molar excess of substrate, 1.25 mg/ml Chromozym TH (Boehringer Mannheim, Indianapolis, Ind.), and the remaining thrombin activity was subsequently measured by monitoring the absorbance at 405 nm for 15 minutes at 22° C. Results Two Tyrosine Residues in the γ′ Chain Are Sulfated. […] Since the γ′ chain differs from the γA chain only in its carboxyl terminal 20 amino acids, it has been assumed that the sulfated residues are within this 20 amino acid sequence, although the addition of the γ′ sequence could also induce conformational changes in the γ chain that expose new sites for sulfation upstream of the carboxyl terminus. […] The carboxyl terminus of the γ′ chain contains two potential sites for tyrosine sulfation at positions γ′ Y418 and γ′ Y422. […] However, no direct evidence of sulfation at γ′ Y418 or γ′ Y422 was presented. Furthermore, in both bovine and rat fibrinogen, the γ′ chain terminates at the equivalent of γ′ 420, prior to γ′ Y422 (37, 38). The rat γ′ chain does, however, contain sulfotyrosine (39). […]

thrombin = thrombin (Homo sapiens, UniProt P00734); conditions: prior studies by others (43); read-out: Ki, direct inhibitory activity towards thrombin; cited from earlier work

Inhibition of α-thrombin binding to fluoresceinated γ′ 408-427 peptide (in words) (α-thrombin [1]) | Molecule | Anticoagulant effect in aPTT (in words) [2] | other results
lower affinity | VRPEHPAETEY(*)DSLY(*)PE (VRPEHPAETEYDSLYPE; not fully specified (residues 11, 15); printed as VRPEHPAETEY(*)DSLY(*)PE) [peptide 408-424] |  | 
lower affinity | AETEY(*)DSLY(*)PEDDL (AETEYDSLYPEDDL; not fully specified (residues 5, 9); printed as AETEY(*)DSLY(*)PEDDL) [peptide 414-427] | reduced level of anticoagulant activity | 
completely inactive | EY(*)DSLY(*)PEDDL (EYDSLYPEDDL; not fully specified (residues 2, 6); printed as EY(*)DSLY(*)PEDDL) [peptide 417-427] | further reduction in activity | 
 | CC(C)C[C@H](NC(=O)[C@H](CC(=O)O)NC(=O)[C@H](CC(=O)O)NC(=O)[C@H](CCC(=O)O)NC(=O)[C@@H]1CCCN1C(=O)[C@H](Cc1ccc(OP(=O)(O)O)cc1)NC(=O)[C@H](CC(C)C)NC(=O)[C@H](CO)NC(=O)[C@H](CC(=O)O)NC(=O)[C@H](Cc1ccc(OP(=O)(O)O)cc1)NC(=O)[C@H](CCC(=O)O)NC(=O)[C@@H](NC(=O)[C@H](CCC(=O)O)NC(=O)[C@H](C)NC(=O)[C@@H]1CCCN1C(=O)[C@H](Cc1c[nH]cn1)NC(=O)[C@H](CCC(=O)O)NC(=O)[C@@H]1CCCN1C(=O)[C@H](CCCNC(=N)N)NC(=O)[C@@H](N)C(C)C)[C@@H](C)O)C(=O)O [γ′ 408-427] (H-VRPEHPAETE[pY]DSL[pY]PEDDL-OH; N-terminus and C-terminus assumed) |  | Kd (α-thrombin [3]): 430 ± 80 nM; Ki (α-thrombin [1]; read-out: Ki, competition for α-thrombin binding to fluoresceinated γ′ 408-427 peptide): 520 ± 140 nM; Effect on heparin's acceleration of thrombin inhibition by ATIII (α-thrombin [4]; 0.33 μM heparin, 13.7 nM ATIII, 0-1.0 mM γ′ peptide, 15 minutes): antagonized the accelerative activity of heparin in a dose-dependent manner; Direct inhibition of thrombin (α-thrombin [4]; concentrations up to 1 mM, data not shown): not directly inhibitory
completely inactive | VRPEHPAETEYDSLYPEDDL [nonphosphorylated peptide] |  | Ki (thrombin): 130000 nM

Molecule | Inhibition of α-thrombin binding to fluoresceinated γ′ 408-427 peptide (in words) (α-thrombin [1]) | Anticoagulant effect in aPTT (in words) [2] | other results
5′-AGT-CCG-TGG-TAG-GGC-AGG-TTG-GGG-TGA-CT-3′ [HD22, reference compound] | more potent competitor than HD1 |  | 
